The values below come from patent US20090105278A1, “Selective inhibitors of human corticosteroid syntheses” (Universitat Des Saarlandes, priority 2004, published 2009).

Each structure is given as a SMILES string. Structures can show the parent of a compound that is named as a salt.

Data set [1] has as its target T1, human CYP17 (Homo sapiens, UniProt P05093).
T1 construct: made in house; host or cells: E. coli pJL17/OR (membrane fraction)
T1 sequence (P05093 1-508): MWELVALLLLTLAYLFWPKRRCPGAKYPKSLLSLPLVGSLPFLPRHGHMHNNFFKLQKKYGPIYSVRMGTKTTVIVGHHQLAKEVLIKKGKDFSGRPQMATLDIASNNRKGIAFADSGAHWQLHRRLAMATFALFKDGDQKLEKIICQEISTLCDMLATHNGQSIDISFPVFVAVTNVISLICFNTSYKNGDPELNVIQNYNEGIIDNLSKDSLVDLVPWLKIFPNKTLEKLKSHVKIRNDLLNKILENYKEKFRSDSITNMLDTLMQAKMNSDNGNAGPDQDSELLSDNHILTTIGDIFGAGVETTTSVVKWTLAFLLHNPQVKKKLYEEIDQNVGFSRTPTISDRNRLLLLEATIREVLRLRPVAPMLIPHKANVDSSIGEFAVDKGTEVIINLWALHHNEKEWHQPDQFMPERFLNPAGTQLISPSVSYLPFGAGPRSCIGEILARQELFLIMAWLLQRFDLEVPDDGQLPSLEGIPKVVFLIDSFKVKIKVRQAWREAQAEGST
Nature of the data set: Percent inhibition of CYP17 (membrane fraction of E. coli pJL17/OR). In kind it is biochemical. To be noted: E. coli which expresses human CYP17; 5 mg/ml protein; progesterone substrate 2.5 μM; inhibitor 2.5 μM; read-out: % Inhibition human CYP17. The method, then: The recombinantly altered E. coli strain pJL17/OR, in which human CYP17 and rat NADPH-P450-reductase were coexpressed, was grown and stored according to the method of Ehmer et al. (Ehmer, P. B. et al., J. Steroid Biochem. Mol. Biol. 75: 57-63 (2000)). For isolating the membrane fraction, 5 ml of the bacterial cell suspension with an OD578 of 50 was washed with phosphate buffer (0.05 M; pH 7.4; 1 mM MgCl2; 0.1 mM EDTA and 0.1 mM DTT). The bacteria were removed by centrifugation and resuspended in 10 ml of ice cold TES buffer (0.1 M tris-acetate; pH 7.8; 0.5 mM EDTA; 0.5 M sucrose). Four milligrams of lysozyme in 10 ml of ice cold water was added to obtain a final concentration of 0.2 mg/ml. This was followed by incubation for 30 minutes under continued shaking on ice. The spheroblasts were obtained by a renewed centrifugation step at 12,000 g for 10 min and again resuspended in 3 ml of ice cold phosphate buffer (composition see above, additionally 0.5 mM PMSF).
After freezing and thawing, the cells were lysed on ice with an ultrasonic disintegrator. The whole cells and the cell debris were centrifuged off at 3000 g for 7 min. The supernatant was again centrifuged at 50,000 g for 20 min at 4° C. A membrane pellet sedimented and was resuspended in 2 ml of phosphate buffer (composition see above) with […] by means of an Ultra-Turrax mixer. […] Aliquots with an approximate protein concentration of 5 mg/ml were stored at −70° C. until use.
Control incubations were performed in parallel with 5 μl DMSO without urea. The reaction was started by adding 50 μl of a membrane suspension diluted 1 to 5 in phosphate buffer (0.8 to 1 mg of protein per ml). After thoroughly mixing the components, the mixture was incubated at 37° C. for 30 min.
The steroids were extracted with 1 ml of EtOAc. […] After the centrifugation, 800 μl of the organic phase was removed, placed into a new vessel and evaporated to dryness. The samples were dissolved in 50 μl of a water-methanol mixture (1:1) and analyzed by HPLC. The substrate conversion was calculated from the ratio of the areas of the product peaks (17α-hydroxyprogesterone and 16α-hydroxyprogesterone) to that of the substrate peak. The activity of the inhibitors was calculated from the reduced substrate conversion after the addition of inhibitors in accordance with the following formula: […]

Data set [2] concerns the target T2, human placental CYP19 (Homo sapiens, UniProt P11511).
T2 construct: The enzyme was obtained from the microsome fraction of fresh human placenta; from tissue; host or cells: human placenta, microsomal fraction
T2 sequence (P11511 1-503): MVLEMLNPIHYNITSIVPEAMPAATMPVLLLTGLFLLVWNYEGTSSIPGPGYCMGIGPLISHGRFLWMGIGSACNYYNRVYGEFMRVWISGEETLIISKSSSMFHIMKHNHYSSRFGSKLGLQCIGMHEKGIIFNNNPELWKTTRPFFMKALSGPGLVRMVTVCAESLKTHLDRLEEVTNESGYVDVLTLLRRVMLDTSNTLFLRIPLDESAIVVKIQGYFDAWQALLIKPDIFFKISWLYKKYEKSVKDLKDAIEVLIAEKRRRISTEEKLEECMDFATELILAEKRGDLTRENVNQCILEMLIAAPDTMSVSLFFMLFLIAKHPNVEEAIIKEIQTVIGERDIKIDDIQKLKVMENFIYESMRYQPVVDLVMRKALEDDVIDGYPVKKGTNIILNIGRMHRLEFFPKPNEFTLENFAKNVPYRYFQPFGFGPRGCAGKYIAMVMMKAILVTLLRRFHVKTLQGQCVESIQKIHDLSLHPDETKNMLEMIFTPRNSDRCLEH
Nature of the data set: IC50 of CYP19 (human placental microsomes). Type of data set: biochemical. To be noted: human placental CYP19; testosterone substrate 2.5 μM. The procedure:
The isolated microsomes were suspended in a minimum volume of phosphate buffer (0.05 M; pH 7.4; […]). In addition, DTT (10 mM) and EDTA (1 mM) were added to protect the enzyme from degradation reactions.
[…] […] The compounds to be tested were dissolved in DMSO and diluted with buffer to the desired concentration. The final DMSO concentration of the control and inhibitor incubations was about 20%. Each vessel was preincubated in a water bath at 30° C. for 5 min. The reaction was started by adding the microsomal protein (0.1 mg). The total volume of each mixture was 200 μl. After 14 min, the reaction was quenched by adding 200 μl of ice cold 1 mM HgCl2 solution. Two hundred microliters of a 2% aqueous suspension of dextran-coated charcoal, DCC) was added for absorbing the steroids, and the vessels were shaken for 20 min. Thereafter, the charcoal was centrifuged off at 1500 g for 5 min. The radioactive water present in the supernatant (^3H2O) was assayed by scintillation measurement using an LKB-Wallac beta counter. The calculation of the IC50 values was effected by a semilogarithmic plot of the percent inhibition against the inhibitor concentration.

In data set [3] the target is T3, human CYP11B2 (Homo sapiens, UniProt P19099).
T3 sequence (P19099 25-503): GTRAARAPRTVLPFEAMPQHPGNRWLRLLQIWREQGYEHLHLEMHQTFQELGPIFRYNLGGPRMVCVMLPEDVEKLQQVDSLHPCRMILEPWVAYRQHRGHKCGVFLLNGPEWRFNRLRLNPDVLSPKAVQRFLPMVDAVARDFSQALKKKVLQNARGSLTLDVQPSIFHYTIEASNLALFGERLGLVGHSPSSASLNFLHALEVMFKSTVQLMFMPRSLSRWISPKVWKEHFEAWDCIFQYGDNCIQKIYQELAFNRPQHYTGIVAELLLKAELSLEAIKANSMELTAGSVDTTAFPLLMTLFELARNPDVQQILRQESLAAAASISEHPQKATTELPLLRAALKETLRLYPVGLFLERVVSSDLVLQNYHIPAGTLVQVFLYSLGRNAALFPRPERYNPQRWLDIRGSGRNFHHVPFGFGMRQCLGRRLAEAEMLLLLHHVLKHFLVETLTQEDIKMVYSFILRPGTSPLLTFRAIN
Nature of the data set: Screening test in transgenic fission yeast (S. pombe PE1) expressing human CYP11B2. In kind it is cell-based. Set-up: expressed in transfected cells. To be noted: S. pombe cells which express human CYP11B2, deoxycorticosterone substrate 100 nM, inhibitor 500 nM. The method, then: 492.5 μl of this cell suspension was admixed with 5 μl of inhibitor solution (50 μM of the compound to be tested in ethanol or DMSO) and incubated at 32° C. for 15 min. Controls were admixed with 5 μl of ethanol. […] The test was quenched by extracting the sample with 500 μl of EtOAc. After centrifugation (10,000 g, 2 min), the EtOAc phase was removed and evaporated to dryness. […] The reaction of the substrate to form corticosterone was analyzed by HPTLC (see below).
The quantification of the spots for the substrate deoxycorticosterone and the products corticosterone (and, if detectable, 18-hydroxycorticosterone and aldosterone) was effected with the related evaluation program AIDA. […] The calculation of the conversion rate was effected according to equation 1.
(§1) The plate was developed twice with the mobile solvent chloroform:methanol:water (300:20:1). Unlabeled 11-deoxycorticosterone and corticosterone were applied as a reference for the CYP11B1 reaction. For the CYP11B2 reaction, 11-deoxycorticosterone, corticosterone, 18-hydroxycorticosterone and aldosterone were used as references. The detection of the unlabeled references was effected at 260 nm. Subsequently, imaging plates (BAS MS2340, for ^14C samples, Raytest, Straubenhardt, Germany) were exposed to the HPTLC plates for 48 h. The imaging plates were scanned with the phosphoimager system Fuji FLA 3000 (Raytest, Straubenhardt, Germany), and the steroids were quantified.

The target of data set [4] is T4, human CYP11B1 (Homo sapiens, UniProt P15538).
T4 construct: expressed in transfected cells; host or cells: V79 MZh11B1 (Chinese hamster lung fibroblasts)
T4 sequence (P15538 25-503): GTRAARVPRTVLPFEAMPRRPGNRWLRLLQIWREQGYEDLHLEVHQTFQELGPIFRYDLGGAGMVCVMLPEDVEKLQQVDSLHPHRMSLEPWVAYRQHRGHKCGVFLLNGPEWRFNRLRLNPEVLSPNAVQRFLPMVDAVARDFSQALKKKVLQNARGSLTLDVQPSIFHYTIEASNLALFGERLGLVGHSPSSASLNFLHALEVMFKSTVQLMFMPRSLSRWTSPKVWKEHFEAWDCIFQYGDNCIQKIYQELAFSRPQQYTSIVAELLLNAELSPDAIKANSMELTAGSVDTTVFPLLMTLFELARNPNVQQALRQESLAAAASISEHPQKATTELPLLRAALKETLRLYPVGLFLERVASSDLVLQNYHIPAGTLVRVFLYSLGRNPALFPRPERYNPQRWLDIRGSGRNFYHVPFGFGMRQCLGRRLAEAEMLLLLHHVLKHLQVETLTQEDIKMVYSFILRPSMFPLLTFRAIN
Briefly: V79 MZh 11B1 cells inhibition test. Type of data set: cell-based. To be noted: for IC50: hamster fibroblasts which express human CYP11B1, deoxycorticosterone substrate 100 nM, read-out: IC50 V79 11B1 hCYP11B1. The method, then:
(§2) Both cell lines were cultured in DMEM^+ containing […] and the antibiotics penicillin and streptomycin (10%) for protection from bacterial contamination. The cells were passaged every 2-3 days after treatment with trypsin/EDTA because the doubling rate was 1-2 days depending on the number of cells. […] When there was further need, freshly thawed cells were employed.
Thereafter, the plate was stored at 37° C. and […] in a CO2 incubator. […] Controls without inhibitor were treated in the same way. The enzyme reactions were quenched by extracting the supernatant with 500 μl of EtOAc. The samples were centrifuged (10,000 g, 2 min), the solvent was removed and evaporated.
(§3) It was calculated by determining the percent inhibition for at least 3 different inhibitor concentrations, which must all be in the linear range of the sigmoidal IC50 curve (log C/% inhibition).
(§4) The calculation was effected by linear regression. The values determined were used only if they formed a straight line with a reliability of […].
as §1

For data set [5], the target named is T3, human CYP11B2. Nature of the data set: V79 MZh 11B2 cells inhibition test. More on the design: expressed in transfected cells; host or cells: V79 MZh11B2 (Chinese hamster lung fibroblasts). As to conditions: for IC50: hamster fibroblasts which express human CYP11B2, deoxycorticosterone substrate 100 nM, read-out: IC50 V79 11B2 hCYP11B2. In kind it is cell-based. The method, then: as §2
Thereafter, the plate was stored at 37° C. and […] in a CO2 incubator. The V79 MZh 11B1 cells were incubated for 120 min, and the V79 MZh 11B2 cells were incubated for 40 min. Controls without inhibitor were treated in the same way. The enzyme reactions were quenched by extracting the supernatant with 500 μl of EtOAc. The samples were centrifuged (10,000 g, 2 min), the solvent was removed and evaporated.
For V79 MZh11B2, the conversion rate was obtained in accordance with equation 3: […]
as §3, §4, §1

`COc1cc2c(cc1OC)/C(=C/c1cccnc1)CCC2.Cl` showed a melting point of 197 °C.
`COc1cc2c(cc1OC)/C(=C/c1ccncc1)CCC2.Cl`: the melting point amounted to 197 °C.
Compound `C(=C1c2ccccc2-c2ccccc21)c1cccnc1.Cl` gave a melting point of 241 °C.
`Cl.N#Cc1ccc2c(c1)/C(=C/c1cnc[nH]1)CCC2` displayed a melting point of 217 °C.
`N#Cc1ccc2c(c1)/C(=C\c1cnc[nH]1)CCC2.O=C(O)C(=O)O` registered a melting point of 197 °C.
`Fc1ccc2c(c1)CC/C2=C\c1cnc[nH]1` (as salt: chloride) [Compound 47a, 5-[(E)-(5-Fluoro-2,3-dihydro-1H-indene-1-ylidenemethyl]-1H-imidazolium chloride] yielded a melting point of 245 °C.
In the case of `C(=C1/CCc2ccccc21)/c1ccncc1` [Compound 2a, 4-[(E)-2,3-Dihydro-1H-indane-1-ylidenemethyl]pyridine Oxalate], in data set [1], the inhibition at 2.5 µM is 8%. 6.7 µM corresponded to half-maximal inhibition in data set [2] (IC50). Moreover, in data set [3] (read-out: % Inhibition human hCYP11B2), the inhibition at 0.5 µM turned out to be 55%.
As for `C/C(=C1/CCc2ccccc21)c1cccnc1.Cl` [Compound 38a, 3-[(1E)-1-(2,3-Dihydro-1H-indane-1-ylidene)ethyl]pyridine Hydrochloride], the IC50 is 0.159 µM in data set [4] and 0.0961 µM in data set [5]. In data set [3], the “% Inhibition human hCYP11B2” value amounted to 67%.
Turning to `c1cncc(-c2ccc3cccc4c3c2CC4)c1` [Compound 50, 3-(1,2-Dihydroacenaphthylene-3-yl)pyridine], the “Inhibition of human CYP11B1, in words” value in data set [4] (V79 cells) is “very weak inhibition”. Further, the IC50 was determined as 2.45 µM in data set [4] and 0.01 µM in data set [5]. The “Selectivity factor IC50 (CYP11B1)/IC50 (CYP11B2)” value in data set [5] (V79 cells expressing human CYP11B1 or CYP11B2) is 245.

As usually defined, the melting point is the temperature of the solid-liquid transition. What is called inhibition is the share of the control response that was lost under treatment. By IC50 is commonly meant the concentration at which inhibition is half-maximal.
